Data from patent publication US4178442A, “Novel cinnamoyles piperazines and homopiperazines, the method of preparing them and their application in therapeutics” (Delalande S. A., priority 1977, dated 1979).
Read-outs that look alike come from different tables or passages of the source.

Columns and labels:
anaesthetized dog = assay: Antiangorous activity on anaesthetized dog: consumption of oxygen in the left ventricule and cardiac effort (KATZ's index); type: in vivo; settings: for inhibition in vivo at 2.5 mg/kg / inhibition in vivo at 2.2 mg/kg / inhibition in vivo at 4.5 mg/kg / inhibition in vivo at 2.1 mg/kg / inhibition in vivo at 2.3 mg/kg / inhibition in vivo at 4.6 mg/kg / inhibition in vivo at 0.625 mg/kg / inhibition in vivo at 10 mg/kg: Canis lupus familiaris, iv
Procedure: The antiangorous activity was tested on an anaesthetized dog (sodium pentobarbital 30 mg/kg/i.v.).
The consumption of oxygen in the left ventricule was estimated by the product of the coronary venous flow and the coronary arteriovenous difference in oxygen (% volume).
The coronary venous flow was measured at the coronary venous sinus by means of a modified Morawitz cannula, introduced under radioscopic control.
The cardiac effort was estimated according to KATZ's index, by the product of the average arterial pressure and the cardiac frequency.
The cardiac frequency was estimated from the electrocardiogram recorded with D2 derivation.
It should be noted that the compounds tested were injected intravenously with slow perfusion.

in vivo = settings: iv; for LD50: read-out: Toxicity: LD50
Text: *LD50 or percentage of mortality which is given between brackets

[1] = 2.5 mg/kg i.v. slow perfusion, read-out: Diminution in consumption of O2
[2] = 2.5 mg/kg i.v. slow perfusion, read-out: Diminution in the cardiac effort (IK)
[3] = 2.3 mg/kg i.v. slow perfusion, read-out: Diminution in consumption of O2
[4] = 2.3 mg/kg i.v. slow perfusion, read-out: Diminution in the cardiac effort (IK)
[5] = 0.625 mg/kg i.v. slow perfusion

CCOC(=O)c1ccc(OCC(O)CN2CCN(C(=O)/C=C/c3cc(OC)c(OC)c(OC)c3)CC2)cc1 (centres unmarked) [760 382]
Diminution in consumption of O2: in time (anaesthetized dog; 2.5 mg/kg i.v. slow perfusion): 30 min
Diminution in the cardiac effort (IK): in time (anaesthetized dog; 2.5 mg/kg i.v. slow perfusion): 30 min
inhibition in vivo at 2.5 mg/kg (anaesthetized dog; [1]): 40%
inhibition in vivo at 2.5 mg/kg (anaesthetized dog; [2]): 24%
LD50 (in vivo): 260 mg/kg

COc1cc(/C=C/C(=O)N2CCN(CC(O)COc3ccc(C(C)=O)cc3)CC2)cc(OC)c1OC (centres unmarked) [760 385]
Diminution in consumption of O2: in time (anaesthetized dog; 2.2 mg/kg i.v. slow perfusion): 15 min
Diminution in the cardiac effort (IK): in time (anaesthetized dog; 2.2 mg/kg i.v. slow perfusion): 15 min
inhibition in vivo at 2.2 mg/kg (anaesthetized dog; 2.2 mg/kg i.v. slow perfusion, read-out: Diminution in consumption of O2): 65%
inhibition in vivo at 2.2 mg/kg (anaesthetized dog; 2.2 mg/kg i.v. slow perfusion, read-out: Diminution in the cardiac effort (IK)): 16%
mortality (in vivo; 351 mg/kg i.v., read-out: Toxicity (Mortality)): 10%

COc1cc(/C=C/C(=O)N2CCN(CC(O)COc3ccccc3C#N)CC2)cc(OC)c1OC (centres unmarked) [760 389]
Diminution in consumption of O2: in time (anaesthetized dog; 4.5 mg/kg i.v. slow perfusion): 60 min
Diminution in the cardiac effort (IK): in time (anaesthetized dog; 4.5 mg/kg i.v. slow perfusion): 60 min
inhibition in vivo at 4.5 mg/kg (anaesthetized dog; 4.5 mg/kg i.v. slow perfusion, read-out: Diminution in consumption of O2): 70%
inhibition in vivo at 4.5 mg/kg (anaesthetized dog; 4.5 mg/kg i.v. slow perfusion, read-out: Diminution in the cardiac effort (IK)): 55%
LD50 (in vivo): 245 mg/kg

COc1cc(/C=C/C(=O)N2CCN(CC(O)COc3ccc(C(C)=O)c4c3OCCO4)CC2)cc(OC)c1OC (centres unmarked) [760 394]
Diminution in consumption of O2: in time (anaesthetized dog; 2.1 mg/kg i.v. slow perfusion): 60 min
Diminution in the cardiac effort (IK): in time (anaesthetized dog; 2.1 mg/kg i.v. slow perfusion): 45 min
inhibition in vivo at 2.1 mg/kg (anaesthetized dog; 2.1 mg/kg i.v. slow perfusion, read-out: Diminution in consumption of O2): 60%
inhibition in vivo at 2.1 mg/kg (anaesthetized dog; 2.1 mg/kg i.v. slow perfusion, read-out: Diminution in the cardiac effort (IK)): 46%
LD50 (in vivo): 214 mg/kg

COc1cc(/C=C/C(=O)N2CCN(CC(O)COc3ccc(Cl)cc3)CC2)cc(OC)c1OC (centres unmarked) [760 476]
Diminution in consumption of O2: in time (anaesthetized dog; 2.3 mg/kg i.v. slow perfusion): 23 min
Diminution in the cardiac effort (IK): in time (anaesthetized dog; 2.3 mg/kg i.v. slow perfusion): 15 min
inhibition in vivo at 2.3 mg/kg (anaesthetized dog; [3]): 70%
inhibition in vivo at 2.3 mg/kg (anaesthetized dog; [4]): 5%
LD50 (in vivo): 185 mg/kg

COc1cc(/C=C/C(=O)N2CCN(CC(O)COc3cc(OC)c(OC)c(OC)c3)CC2)cc(OC)c1OC (centres unmarked) [760 506]
Diminution in consumption of O2: in time (anaesthetized dog; 2.3 mg/kg i.v. slow perfusion): 60 min
Diminution in the cardiac effort (IK): in time (anaesthetized dog; 2.3 mg/kg i.v. slow perfusion): 60 min
inhibition in vivo at 2.3 mg/kg (anaesthetized dog; [3]): 67%
inhibition in vivo at 2.3 mg/kg (anaesthetized dog; [4]): 26%
LD50 (in vivo): 182 mg/kg

COc1cc(/C=C/C(=O)N2CCN(CC(O)COc3ccc(SC)cc3)CC2)cc(OC)c1OC (centres unmarked) [760 507]
Diminution in consumption of O2: in time (anaesthetized dog; 4.6 mg/kg i.v. slow perfusion): 60 min
Diminution in the cardiac effort (IK): in time (anaesthetized dog; 4.6 mg/kg i.v. slow perfusion): 30 min
inhibition in vivo at 4.6 mg/kg (anaesthetized dog; 4.6 mg/kg i.v. slow perfusion, read-out: Diminution in consumption of O2): 68%
inhibition in vivo at 4.6 mg/kg (anaesthetized dog; 4.6 mg/kg i.v. slow perfusion, read-out: Diminution in the cardiac effort (IK)): 32%
LD50 (in vivo): 185 mg/kg

COc1cc(/C=C/C(=O)N2CCN(CC(O)COc3cccc4c3OCCO4)CC2)cc(OC)c1OC (centres unmarked) [760 519]
Diminution in consumption of O2: in time (anaesthetized dog; 2.5 mg/kg i.v. slow perfusion): 15 min
Diminution in the cardiac effort (IK): in time (anaesthetized dog; 2.5 mg/kg i.v. slow perfusion): 15 min
inhibition in vivo at 2.5 mg/kg (anaesthetized dog; [1]): 51%
inhibition in vivo at 2.5 mg/kg (anaesthetized dog; [2]): 11%
LD50 (in vivo): 218 mg/kg

COc1cc(/C=C/C(=O)N2CCN(CC(O)COc3ccccc3Cl)CC2)cc(OC)c1OC (centres unmarked) [760 520]
Diminution in consumption of O2: in time (anaesthetized dog; 2.3 mg/kg i.v. slow perfusion): 40 min
Diminution in the cardiac effort (IK): in time (anaesthetized dog; 2.3 mg/kg i.v. slow perfusion): 30 min
inhibition in vivo at 2.3 mg/kg (anaesthetized dog; [3]): 45%
inhibition in vivo at 2.3 mg/kg (anaesthetized dog; [4]): 13%
LD50 (in vivo): 157 mg/kg

COc1cc(/C=C/C(=O)N2CCN(CC(O)COc3ccc(CC#N)c4c3OCCO4)CC2)cc(OC)c1OC (centres unmarked) [770 188]
LD50 (in vivo): 219 mg/kg

COc1cc(/C=C/C(=O)N2CCN(CC(O)CSc3cccc4c3OCCO4)CC2)cc(OC)c1OC (centres unmarked) [780 389]
Diminution in consumption of O2: in time (anaesthetized dog; 2.5 mg/kg i.v. slow perfusion): 15 min
Diminution in the cardiac effort (IK): in time (anaesthetized dog; 2.5 mg/kg i.v. slow perfusion): 30 min
inhibition in vivo at 2.5 mg/kg (anaesthetized dog; [1]): 32%
inhibition in vivo at 2.5 mg/kg (anaesthetized dog; [2]): 15%

COc1cc(/C=C/C(=O)N2CCN(CC(O)COc3ccc(C(C)=O)cc3Cl)CC2)cc(OC)c1OC (centres unmarked) [780 401]
Diminution in consumption of O2: in time (anaesthetized dog; 2.5 mg/kg i.v. slow perfusion): 30 min
inhibition in vivo at 2.5 mg/kg (anaesthetized dog; [1]): 64%
inhibition in vivo at 2.5 mg/kg (anaesthetized dog; [2]): 6%

COc1cc(/C=C/C(=O)N2CCN(CC(O)COc3ccc(C(C)=O)cc3OC)CC2)cc(OC)c1 (centres unmarked) [780 404]
Diminution in consumption of O2: in time (anaesthetized dog; 2.5 mg/kg i.v. slow perfusion): 15 min
Diminution in the cardiac effort (IK): in time (anaesthetized dog; 2.5 mg/kg i.v. slow perfusion): 30 min
inhibition in vivo at 2.5 mg/kg (anaesthetized dog; [1]): 69%
inhibition in vivo at 2.5 mg/kg (anaesthetized dog; [2]): 44%

CNC(=O)Nc1ccc(OCC(O)CN2CCN(C(=O)/C=C/c3cc(OC)c(OC)c(OC)c3)CC2)c2c1OCCCO2 (centres unmarked) [780 456]
Diminution in consumption of O2: in time (anaesthetized dog; [5]): 15 min
Diminution in the cardiac effort (IK): in time (anaesthetized dog; [5]): 30 min
inhibition in vivo at 0.625 mg/kg (anaesthetized dog; 0.625 mg/kg i.v. slow perfusion, read-out: Diminution in consumption of O2): 13%
inhibition in vivo at 0.625 mg/kg (anaesthetized dog; 0.625 mg/kg i.v. slow perfusion, read-out: Diminution in the cardiac effort (IK)): 32%

CCCCc1oc2ccccc2c1C(=O)c1cc(I)c(OCCN(CC)CC)c(I)c1 [AMIODARONE, reference compound]
Diminution in consumption of O2: in time (anaesthetized dog; 10 mg/kg i.v. slow perfusion): 15 min
Diminution in the cardiac effort (IK): in time (anaesthetized dog; 10 mg/kg i.v. slow perfusion): 15 min
inhibition in vivo at 10 mg/kg (anaesthetized dog; 10 mg/kg i.v. slow perfusion, read-out: Diminution in consumption of O2): 11%
inhibition in vivo at 10 mg/kg (anaesthetized dog; 10 mg/kg i.v. slow perfusion, read-out: Diminution in the cardiac effort (IK)): 22%
